We go through 3 molecules from patent US9422238B2, “ICMT inhibitors” (National University of Singapore, priority 2012, dated 2016).

Converted amounts (≈) assume the structure as drawn. “And” between values parts separate entries of the source, which are not always exact repeats. Equal values may be shown once. Read-outs that look alike come from different tables or passages of the source.

Data set [1] has as its system Balb/c mice. As to the method: Animals were given free access to water and standard feed. […] The test compound was administered intraperitoneally using a 23G gauge needle to the animal in a volume of vehicle that was tagged to the body weight, namely 0.2 mL for 20 g animal and so on. The vehicle was formulated from ethanol, PEG 400 (Sigma Aldrich) and 5% dextrose (Sigma Aldrich) in the ratio 1:6:3. The test compound was first dissolved in ethanol, PEG400 was added and the solution was vortexed, followed by 5% dextrose and further vortexing. The solutions were freshly prepared before administration.

A short description of data set [2]: physchem. Particulars: for solubility at 24 h: 25 °C; for solubility at 24 h / solubility / solubility at 3 h: pH 7.4, aqueous buffer, kinetic from dmso stock. As for the experimental part:
The turbid solution was delivered to the filter plate, agitated for a specific time period and then filtered. The concentration of dissolved compound in the filtrate was determined by uv spectroscopy and referred to pre-constructed calibration curves for solubility determination.
(§1) Determination of aqueous solubility was carried out on Multiscreen® Solubility filter plates (Millipore-MSSLBPC10) from Millipore Corporation (MA, USA). The protocol (PC2445EN00, Millipore Corporation) was followed. Briefly, various concentrations of the test compound were prepared in Universal buffer (pH 7.4)/acetonitrile/DMSO. The UV absorbances of these solutions were obtained at a pre-determined wavelength and used to construct a calibration curve for the test compound. Next, a stock solution of the test compound in DMSO was prepared at a known concentration, diluted with Universal buffer (pH 7.4), dispensed into wells in the Multiscreen Solubility filter plate, and agitated for a period of time. The suspension is then filtered, the filtrate collected and diluted with acetonitrile to give the same solvent composition used to prepare the calibration solutions. The absorbance of the diluted filtrate was then read at the predetermined wavelength and the concentration of the filtrate (taken here to be equivalent to the solubility of the test compound) was determined from the calibration curve.
as §1, with “24 hours at room temperature (25 deg C.). […]” for “a period of time.”, “was” for “is then”, “was” for “was then”, “(equivalent” for “(taken here to be equivalent”, “curve. […] LCMS determinations were made on an Agilent 1200 Series HPLC linked to a AB Sciex Instruments 3200 Q TRAP LC/MS/MS. Separations were carried out on a Phenomenex Luna column [3u, C18(2), 100A, 5×4.6 mm]. […] Quantification was based on the ratio of peak areas of the daughter ion and the mother ion (M+H), normalized against the same ratio obtained for the internal standard. The solubility determinations were carried out in triplicates or more from two different stock solutions.” for “curve.”

Data set [3] can be described thus: In vitro stability in rat liver microsomes. Particulars: for Half-life (min) / Intrinsic Clearance (μL/min/mg): NADPH; for half-life / microsomal CLint: male, pooled rat liver microsomes, pH 7.4, NADPH; for microsomal CLint: read-out: Intrinsic Clearance. In kind it is in vitro ADME. As to the method:
The mixture was preincubated for 5 min at 37° C. in a shaking water bath, after which the reaction was initiated by adding […] of 10 mM NADPH (freshly prepared in phosphate buffer) to give a final concentration of 1 mM NADPH in the mixture. Aliquots of 50 μL were withdrawn immediately on addition of NADPH (time 0) and subsequently at 5, 15, 30 and 45 min. […] The mixture was then centrifuged at 10,000×g to remove the protein and the content of the test compound in the supernatant was subsequently measured by LCMS.
For each test compound, the metabolic stability of a positive control, midazolam (5 μM) which is a known cytochrome P450 substrate, was concurrently determined to evaluate the adequacy of the experimental conditions. The stability of the test compound to microsomal degradation in the absence of NADPH was also monitored.
Separations were made on a C18 column (Luna 3u C18(2) 100A column (2.0×50 mm, i.d., 3 μM, Phenomenex, Aschaffenburg, Germany or Eclipse Plus C18 column, 4.6×150 mm, i.d., 3.5 μM Agilent Technologies, Palo Alto, Calif., USA) with a security guard cartridge (3.0×4 mm, Agilent Technologies, Palo Alto, Calif., USA). Mobile phase was 0.1% formic acid in acetonitrile-water as mobile phase. Flow rate was set at 0.2 or 0.6 mL/min and the column temperature was at 30° or 40° C. 2 or 5 μL full loop sample injection was used.
Data processing was performed with Analyst™ 1.4.2 software package (Applied Biosystems, MA., USA). The corresponding MRM transition of this candidate was selected and used for peak configuration in Analyst 1.4.2 for semi-quantitation. The peak areas of test compound at different time points were expressed as a % of the peak area of test compound at time=0 min. The resulting % of intact (or remaining) test compound (average of 3 measurements with SD) was plotted against incubation time drug (Figure xx). In vitro half life (T1/2, min) was calculated from Equation 3 (Lu C, Li P, Gallegos R, Uttamsingh V, Xia C Q, Miwa G T, et al. Comparison of intrinsic clearance in liver microsomes and hepatocytes from rats and humans: evaluation of free fraction and uptake in hepatocytes. Drug Metab Dispos 2006; 34: 1600-5). T1/2=0.693/k(min) Equation 3: Where k is the slope of the plot Estimated in vitro clearance was determined from Equation 4: CLint, in vitro=V×0.693/T½ Equation 4: where V (μL/mg)=Volume of incubation/amount of microsomal protein in the incubation (μL/mg) Ames Test for Mutagenicity
(Liver microsomes are a subcellular fraction often used to study metabolism.)

[4] abbreviates: female, Balb/c, mouse, in vivo, ip, 24 h.

As to `CCCCCCCCn1cc(CN(CC)CC)c2cc(-c3cnc(N)nc3)ccc21` [Compound 8-12, 5-(3-Diethylaminomethyl-1-octyl-1H-indol-5-yl)-pyrimidin-2-ylamine], the tolerability result in data set [1] (setting [4]) was “well tolerated at 10, 20 and 50 mg/kg”. In data set [1] (mice, IP), the “apparent maximal tolerated dose” value was determined as 100 mg/kg. Moreover, in data set [2], the solubility at 24 h is 156 µM and 64 µg/mL; the solubility was ~65 µg/mL (≈ 159 µM); the concentration in solution (solubility at 3 h) came to 166 µM (≈ 67.7 µg/mL). Besides, in data set [2] (24 h, pH 7.4), the “Aqueous Solubility (pH 7.4) 24 hours” value was 155.9 (6.4) μM. Also, in data set [3], the “Half-life (min)” value is reported as 11.3 (0.4) min, the “Intrinsic Clearance (μL/min/mg)” value is on record as 204.0 (9.0) μL/min/mg, the half-life was 11.3 min and the microsomal CLint was found to be 204 µL/min/mg.

Turning to `CCCCCCCCn1c2c(c3cc(-c4cnc(N)nc4)ccc31)CN(C)CC2` [Compound 305, 8-(2′-amino-pyrimidin-5′-yl)-2-methyl-5-n-octyl-1,2,3,4-tetrahydropyrido[4,3-b]indole], in data set [2], the solubility at 24 h was 40.6 µM (≈ 15.9 µg/mL), the solubility worked out at 20 µg/mL (≈ 51.1 µM) and the concentration in solution (solubility at 3 h) was 49.5 µM (≈ 19.4 µg/mL). In addition, the “Solubility (μM)” value in data set [2] (24 h, pH 7.4) is reported as 40.6 (1.75) μM. For the same molecule, in data set [3], the half-life was determined as 31.6 min and the microsomal CLint amounted to 76.6 µL/min/mg.

Turning to `CCCCCCCCn1cc(CC(N)=O)c2cc(-c3cccc(C)c3)ccc21` [Cysmethynil, 2-[5-(3-methylphenyl)-1-octyl-1H-indolo-3-yl]acetamide, reference compound], in data set [1] (setting [4]), the maximal tolerated dose result is recorded as “exceeded 100 kg/kg”. In addition, the tolerability result in data set [1] (mouse, in vivo, ip) is “well tolerated at all doses”. In data set [2], the solubility at 24 h was < 1 µM and the solubility at 3 h was < 1 µM. Besides, in data set [3], the “Half-life (min)” value was 44.8 (8.0) min, the “Intrinsic Clearance (μL/min/mg)” value is on record as 53.6 (9.0) μL/min/mg, the half-life came out at 44.8 min and the microsomal CLint is 53.6 µL/min/mg.

For orientation: solubility means the dissolved amount per volume that the medium holds. A low value points to a poorly soluble substance. What is called half-life is the time needed for the level to fall by half in the phase considered.
